Source: ChEMBL document CHEMBL1759905, “Nonsteroidal 2,3-dihydroquinoline glucocorticoid receptor agonists with reduced PEPCK activation” (Bioorg Med Chem Lett, 2011)
pEC50, pIC50, pKi: −log10 of the molar value.

How the values were obtained:
Glucocorticoid receptor [1] = biological target: T1, Glucocorticoid receptor (Homo sapiens, UniProt P04150); test: Displacement of radiolabeled Dexamethasone from glucocorticoid receptor expressed in baculovirus
T1 sequence (P04150 whole entry): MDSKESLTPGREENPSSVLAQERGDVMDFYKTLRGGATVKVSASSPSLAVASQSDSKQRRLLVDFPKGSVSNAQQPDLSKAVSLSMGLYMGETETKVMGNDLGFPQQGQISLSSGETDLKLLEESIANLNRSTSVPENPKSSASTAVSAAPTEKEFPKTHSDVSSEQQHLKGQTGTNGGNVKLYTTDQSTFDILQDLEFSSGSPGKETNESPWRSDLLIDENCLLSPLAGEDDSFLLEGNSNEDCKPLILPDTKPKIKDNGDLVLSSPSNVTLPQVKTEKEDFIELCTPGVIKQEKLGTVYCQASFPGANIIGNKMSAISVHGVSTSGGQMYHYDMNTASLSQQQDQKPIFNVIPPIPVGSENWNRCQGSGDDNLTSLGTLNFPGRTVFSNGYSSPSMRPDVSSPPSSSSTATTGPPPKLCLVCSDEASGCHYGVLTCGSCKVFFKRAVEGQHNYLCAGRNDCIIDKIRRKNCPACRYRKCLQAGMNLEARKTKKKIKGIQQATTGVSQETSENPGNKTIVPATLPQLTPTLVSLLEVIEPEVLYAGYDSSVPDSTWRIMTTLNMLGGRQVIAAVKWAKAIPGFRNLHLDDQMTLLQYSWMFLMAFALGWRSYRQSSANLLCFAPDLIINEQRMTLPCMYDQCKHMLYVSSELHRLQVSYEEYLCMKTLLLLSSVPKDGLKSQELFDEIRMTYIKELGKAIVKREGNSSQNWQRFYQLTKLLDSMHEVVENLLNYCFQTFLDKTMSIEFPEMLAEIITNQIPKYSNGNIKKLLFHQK

[2] = biological target: T2, Glucocorticoid receptor (Homo sapiens) (UniProt P04150); test: Agonist activity at glucocorticoid receptor in human HepG2 cells co-transfected with GRE assessed as GRE activation by luciferase reporter gene assay relative to Dexamethasone; format: functional, cell-based; set-up: concentration or dose not given beside the values
T2 sequence (whole entry): T1 sequence (P04150 whole entry)

Glucocorticoid receptor [3] = biological target: T1, Glucocorticoid receptor; test: Transrepression activity at glucocorticoid receptor in human HepG2 cells assessed as inhibition of TNFalpha/IL1beta-stimulated NFkappaB-dependent E-selectin repression by luciferase reporter gene assay; format: cell-based
[4] = biological target: T2, Glucocorticoid receptor (Homo sapiens); test: Transrepression activity at glucocorticoid receptor in human HepG2 cells assessed as inhibition of TNFalpha/IL1beta-stimulated NFkappaB-dependent E-selectin repression by luciferase reporter gene assay relative to Dexamethasone; format: cell-based; set-up: scale not given: the % may be the effect or the level left
Glucocorticoid receptor [5] = biological target: T1, Glucocorticoid receptor; test: Transrepression activity at glucocorticoid receptor in human NHDF cells assessed as inhibition of IL-1beta-stimulated AP1 dependent IL-6 repression by ELISA; format: cell-based
Glucocorticoid receptor [6] = biological target: T1, Glucocorticoid receptor; test: Agonist activity at glucocorticoid receptor in human HepG2 cells co-transfected with PEPCK assessed as GRE activation by luciferase reporter gene assay; format: functional, cell-based
[7] = biological target: T2, Glucocorticoid receptor (Homo sapiens); test: Agonist activity at glucocorticoid receptor in human HepG2 cells co-transfected with PEPCK assessed as GRE activation by luciferase reporter gene assay relative to Dexamethasone; format: functional, cell-based
Glucocorticoid receptor [8] = biological target: T1, Glucocorticoid receptor; test: Agonist activity at glucocorticoid receptor in human HepG2 cells co-transfected with GRE assessed as GRE activation by luciferase reporter gene assay; format: functional, cell-based
Androgen receptor = biological target: T3, Androgen receptor (Homo sapiens, UniProt P10275); test: Binding affinity to androgen receptor
T3 sequence (P10275 whole entry): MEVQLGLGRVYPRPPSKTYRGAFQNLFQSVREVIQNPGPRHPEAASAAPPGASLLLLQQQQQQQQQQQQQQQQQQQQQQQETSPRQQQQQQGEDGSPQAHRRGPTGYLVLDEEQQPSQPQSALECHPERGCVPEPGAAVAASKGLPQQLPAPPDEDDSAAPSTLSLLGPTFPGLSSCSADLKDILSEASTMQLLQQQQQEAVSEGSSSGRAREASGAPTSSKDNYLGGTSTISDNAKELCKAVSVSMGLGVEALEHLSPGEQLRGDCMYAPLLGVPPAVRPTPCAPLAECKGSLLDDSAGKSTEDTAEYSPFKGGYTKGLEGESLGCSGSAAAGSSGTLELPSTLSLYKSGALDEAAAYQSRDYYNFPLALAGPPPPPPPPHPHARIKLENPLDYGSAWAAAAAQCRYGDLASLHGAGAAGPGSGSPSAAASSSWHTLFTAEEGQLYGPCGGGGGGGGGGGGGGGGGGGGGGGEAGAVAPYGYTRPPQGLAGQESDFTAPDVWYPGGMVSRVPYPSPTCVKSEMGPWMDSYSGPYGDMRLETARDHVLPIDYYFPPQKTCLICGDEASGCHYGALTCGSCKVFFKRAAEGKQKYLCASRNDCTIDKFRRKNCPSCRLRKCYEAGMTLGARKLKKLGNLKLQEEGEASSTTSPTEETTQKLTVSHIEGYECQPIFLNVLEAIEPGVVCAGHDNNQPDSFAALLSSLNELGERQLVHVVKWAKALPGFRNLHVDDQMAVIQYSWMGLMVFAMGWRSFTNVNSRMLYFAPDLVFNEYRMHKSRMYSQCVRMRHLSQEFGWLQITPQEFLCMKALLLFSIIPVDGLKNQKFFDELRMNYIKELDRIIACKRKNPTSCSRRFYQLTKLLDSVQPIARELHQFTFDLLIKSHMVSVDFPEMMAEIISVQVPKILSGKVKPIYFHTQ

Progesterone receptor = biological target: T4, Progesterone receptor (Homo sapiens, UniProt P06401); test: Binding affinity to progesterone receptor
T4 sequence (P06401 whole entry): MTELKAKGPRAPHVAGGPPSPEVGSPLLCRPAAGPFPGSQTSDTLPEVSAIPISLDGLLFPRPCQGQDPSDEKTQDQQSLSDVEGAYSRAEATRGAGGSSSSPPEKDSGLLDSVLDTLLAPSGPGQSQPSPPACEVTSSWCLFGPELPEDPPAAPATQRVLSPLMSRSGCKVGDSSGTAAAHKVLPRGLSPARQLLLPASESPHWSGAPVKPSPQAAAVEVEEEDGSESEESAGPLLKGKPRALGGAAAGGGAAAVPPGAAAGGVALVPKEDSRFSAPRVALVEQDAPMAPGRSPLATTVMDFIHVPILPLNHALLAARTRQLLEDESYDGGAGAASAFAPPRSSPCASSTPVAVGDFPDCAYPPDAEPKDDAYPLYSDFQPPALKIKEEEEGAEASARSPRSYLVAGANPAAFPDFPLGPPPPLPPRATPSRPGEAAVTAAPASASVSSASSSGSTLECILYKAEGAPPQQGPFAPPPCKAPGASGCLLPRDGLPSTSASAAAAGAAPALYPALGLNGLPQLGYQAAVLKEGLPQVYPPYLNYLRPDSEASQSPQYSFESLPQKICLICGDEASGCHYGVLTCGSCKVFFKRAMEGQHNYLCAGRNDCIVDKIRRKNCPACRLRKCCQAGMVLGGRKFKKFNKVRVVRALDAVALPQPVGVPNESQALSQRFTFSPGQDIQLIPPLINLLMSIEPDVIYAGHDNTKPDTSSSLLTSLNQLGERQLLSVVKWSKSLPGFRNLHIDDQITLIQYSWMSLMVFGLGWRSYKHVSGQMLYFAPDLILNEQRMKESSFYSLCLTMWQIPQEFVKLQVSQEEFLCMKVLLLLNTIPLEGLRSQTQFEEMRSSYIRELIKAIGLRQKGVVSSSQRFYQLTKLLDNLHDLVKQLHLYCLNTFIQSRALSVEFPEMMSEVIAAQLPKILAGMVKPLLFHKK

[9] = biological target: T2, Glucocorticoid receptor (Homo sapiens); test: Transrepression activity at glucocorticoid receptor in human NHDF cells assessed as inhibition of IL-1beta-stimulated AP1 dependent IL-6 repression by ELISA relative to Dexamethasone; format: cell-based; set-up: concentration or dose not given beside the values

| pKi (Glucocorticoid receptor [1]) | pIC50 (Glucocorticoid receptor [3]) | Activity [4] [%] | Activity [9] [%] | also measured | SMILES |
| --- | --- | --- | --- | --- | --- |
| 5.57 |  |  |  |  | Cc1c[nH]c2c(-c3c(F)cc4c(c3F)/C(=N/OC(C)(C)C(=O)O)CC(C)(C)N4)cccc12 |
|  |  |  |  | Activity [2]: 129% | C[C@]12C=CC(=O)C=C1CC[C@@H]1[C@@H]2[C@@H](O)C[C@@]2(C)[C@H]1CC[C@]2(O)C(=O)CO |
| 9.40 | 8.16 | 91 |  |  | CCO/N=C1\CC(C)(C)Nc2cc(F)c(-c3cccc4cc[nH]c34)c(F)c21 |
| 8.82 | 7.66 | 87 |  |  | COC(=O)C(C)(C)O/N=C1\CC(C)(C)Nc2cc(F)c(-c3cccc4c(C)c[nH]c34)c(F)c21 |
| 6.43 |  |  |  |  | CC1(C)C/C(=N\O)c2c(cc(F)c(-c3cccc4cc[nH]c34)c2F)N1 |
| 8.15 | 7.38 | 83 |  |  | CO/N=C1\CC(C)(C)Nc2cc(F)c(-c3cccc4cc[nH]c34)c(F)c21 |
| 8.24 | 8.06 | 74 |  |  | Cc1c[nH]c2c(-c3c(F)cc4c(c3F)/C(=N/OCc3ccccc3)CC(C)(C)N4)cccc12 |
| 9.22 | 8.59 | 98 | 97 | pIC50 (Glucocorticoid receptor [5]): 8.28; pEC50 (Glucocorticoid receptor [6]): 6.94; Activity [7]: 61%; pEC50 (Glucocorticoid receptor [8]): 8.82; pKi (Androgen receptor): 6.37; pKi (Progesterone receptor): 7.57; Activity [2]: 138% | CCO/N=C1/c2c(cc(F)c(-c3cccc4c(C)c[nH]c34)c2F)NC(C)(C)C1O (racemic) |
| 7.51 | 7.29 | 67 |  |  | Cc1c[nH]c2c(-c3c(F)cc4c(c3F)/C(=N/Oc3ccccc3)CC(C)(C)N4)cccc12 |
|  |  |  | 90 | pEC50 (Glucocorticoid receptor [6]): 7.28; Activity [7]: 75%; Activity [2]: 138% | C[C@H]1c2c(cc(F)c(-c3cccc4cc[nH]c34)c2F)NC(C)(C)[C@@H]1O |
| 9.15 | 7.85 | 100 | 99 | pIC50 (Glucocorticoid receptor [5]): 7.66 | CO/N=C1/c2c(cc(F)c(-c3cccc4c(Cl)c[nH]c34)c2F)NC(C)(C)C1O (stereo not drawn) |
| 8.15 | 8.46 | 93 | 57 | pIC50 (Glucocorticoid receptor [5]): 7.40 | CC1(C)C/C(=N\OC(C)(C)C)c2c(cc(F)c(-c3cccc4cc[nH]c34)c2F)N1 |
